Assay results from US11974551B2, “L-serine compositions, methods and uses for treating neurodegenerative diseases and disorders” (priority 2011, dated 2024).
Entries after “also recorded” stand apart in the source; their conditions may differ.

Experiments:
zebrafish [1] = experiment: Zebrafish swimming performance (critical swimming speed, time to fail); type: in vivo, zebrafish (Dario rerio); settings: single yolk injection of BMAA, fish reared 3 months, compared to control fish, p<0.001
Procedure: (§1) BMAA was directly injected through the chorion into the yolk, allowing it to directly compete with L-serine for incorporation into newly synthesized proteins in the developing fish. BMAA (100 mg/ml in water) or water were delivered by an automated Picospritzer pump set to deliver 5 nL per injection into the yolk ([…]) of zebrafish immediately after being fertilized. Fish were left to develop for 30 hours in standard conditions.
(§2) Surviving fish were reared in an aquarium equipped with biological filtration and temp control set at 28° C. for 3 months. BMAA-treated and control fish from the same parents were reared in the same tanks, then separated based on fluorescent tag prior to swimming assessment. After 3 months all healthy adult fish with no deformations or abnormalities were examined. Critical swimming speed was determined, defined as the maximum swimming velocity that can be sustained for a set period in a water tunnel. Water was pumped from a reservoir (EcoTech Marine MP10 VorTech® Propeller Pump with EcoSmart Driver) through 50 mm diameter tubing. […] The difference in total motor neuron length was quantitated by measuring the first ten motor neuron projections marked before the end of the yolk extension (Paquet D. et al., J. Clin. Invest. 119:1382 (2009)). […] Data was collated in GraphPad Prism (version 6 for OSX) and statistical significance calculated using a Student's T-test. […]

MRC-5 cells [2] = experiment: Lactate dehydrogenase (LDH) release assay; type: cell-based, human; settings: BMAA-treated cells
Procedure: (§3) Lactate dehydrogenase release from cells was determined as described previously (Tang, et al., Phytother Res 25, 417-423 (2010)).

SH-SY5Y cells [3] = experiment: Lactate dehydrogenase (LDH) release assay; type: cell-based, human; settings: BMAA-treated cells
Procedure: as §3

[4] = Radio-labeled BMAA brain entry and insertion into neuroproteins; type: in vivo; settings: tritiated and 14C-labeled BMAA, rats
Source text: Studies testing to determine if L-Serine blocks the misincorporation of radio-tagged BMAA into rodent brains are undertaken.

MRC-5 cells [5] = experiment: Autofluorescence imaging of cells; type: cell-based, human; settings: BMAA 300 μM, 96 hours
Procedure: MRC-5 cells were incubated in DMEM supplemented with 300 μM BMAA in the presence or absence of 300 μM L-serine for 96 hours with daily medium changes. Cellular autofluorescence was visualized using an inverted fluorescent microscope (Olympus IX71) as described previously (Dunlop, et al., Biochem J 410, 131-140 (2008)).

MRC-5 cells [6] = experiment: Acridine orange/ethidium bromide dual-staining of cells; type: cell-based, human; settings: 500 μM BMAA, 23 hours
Procedure: MRC-5 cells were incubated in the presence and absence of 500 μM BMAA for 23 hours. After removing the medium, the cells were rinsed once with warm PBS and incubated in a solution of AO/EB then visualized using fluorescent microscopy as described previously (Tang, et al., Phytother Res 25, 417-423 (2010)).

Drosophila fruit flies = experiment: Fruit fly feeding: mortality after three days; type: in vivo, Drosophila melanogaster; settings: media with 25 mM BMAA, after three days
Procedure: Preliminary studies show the ability of L-Serine to prevent misincorporation of BMAA into proteins. In a series of feeding experiments, Drosophila fruit flies were fed four different types of media: 1) standard fruit fly media with 0 mM BMAA (control), 2) media enriched with 25 mM L-Serine, 3) media with 25 mM BMAA added, and 4) media with both 25 mM BMAA and 25 mM L-Serine added for three days of feeding. Misincorporation of BMAA into proteins was then analyzed using triple quadrupole LC/MS/MS and Orbital Trap LC/MS/MS.
Equally interesting is the analysis of the protective value of L-Serine on Drosophila dosed with BMAA. Fruit flies fed with BMAA enriched media (third set of blocks) suffered a 40% mortality after three days, while flies fed with Serine plus BMAA (fourth set of blocks) had no mortality (FIG. 8). These flies were rescued by L-Serine.

zebrafish [7] = experiment: Zebrafish egg yolk injection: survival; type: in vivo, zebrafish (Dario rerio); settings: BMAA 100 mg/ml in water, 5 nL injected into yolk after fertilization, 30 hours; control 91%
Procedure: as §1

zebrafish [8] = experiment: Zebrafish motor neuron development (fluorescent microscopy); type: in vivo, zebrafish (Dario rerio); settings: eggs injected with L-BMAA, 30 hours; motor neuron length vs control P<0.0001
Procedure: as §1, §2

SH-SY5Y cells [9] = experiment: Annexin V binding (apoptosis) by flow cytometry; type: cell-based, human
Procedure: Late-stage apoptosis or necrosis was measured by simultaneous staining with propidium iodide and Annexin V using the BD Pharmingen™ Annexin V—FITC apoptosis detection kit and flow cytometry performed as described previously (Dunlop, et al., Biochem J 435, 207-216 (2010)).

MRC-5 cells [10] = experiment: Protein-bound non-labeled BMAA in hydrolysed cell proteins by triple quadrupole LC/MS/MS; type: cell-based, human; settings: BMAA 250-1000 μM with L-serine 250-1000 μM, or CHX
Procedure: After incubation with ^3H-BMAA or cold BMAA, cells were washed three times with PBS, lysed by freeze thawing in Triton-X-100 (0.1%) and cell proteins precipitated in TCA (5%). Protein pellets were washed three times with TCA (5%) and hydrolysed in boiling 6 M HCl at 110° C. for 16 hours as previously described (Mondo, et al., Mar Drugs 10, 509-520 (2012)). Protein pellets were freeze-dried and reconstituted in 20 mM HCl. Particulates were removed by centrifugation through […] membranes and the hydrolysate derivatized in AccQ·Tag (Waters Corporation, Australia). Amino acids were separated on a Waters C-18 column using a method and gradient as described previously (Mondo, et al., Mar Drugs 10, 509-520 (2012)). For recovery of radiolabel in hydrolysed samples, fractions were collected manually every minute for 40 minutes, diluted into 5 ml scintillant (Ultima Gold™ scintillant, Perkin Elmer) and disintegrations per minute (DPM) determined by LSC.
To further confirm that BMAA was present in cell proteins and incorporation was inhibited by L-serine, MRC-5 cells were incubated with a range of concentrations of BMAA (250-1000 μM) or BMAA with L-serine (250-1000 μM) and hydrolysed cell proteins were analyzed by tandem mass spectroscopy on a triple quadrupole LC/MS/MS. […]

SH-SY5Y cells [11] = experiment: Incorporation of 3H-BMAA radiolabel into cell proteins with or without CHX; type: cell-based, human; settings: 3H-BMAA 31.25 nM, CHX 2 μg/ml, 16 hours
Procedure: (§4) MRC-5 cells, a human lung fibroblast cell line (passage number 14-19), and SH-SY5Y cells, a human neuroblastoma cell-line (passage number 30-32), were maintained in DMEM, or DMEM/Hams F12 respectively containing 10% fetal bovine serum (FBS), 4 mM L-glutamine, 100 U/mL penicillin, and 100 μg/mL streptomycin at 37° C. in a humidified atmosphere of 5% CO2 and 95% air. Human umbilical vein endothelial cells (HUVEC) were harvested enzymatically with type II collagenase (Sigma-Aldrich) under sterile conditions as described by Minter (Minter, et al., Thromb Haemost 67, 718-723 (1992)) and established as primary cell cultures in M199 (Trace Biosciences, Sydney, Australia) containing 20% FBS, 4 mM L-glutamine, 0.5% endothelial cell growth promoter, 100 U/mL penicillin, and 100 μg/mL streptomycin. All media were prepared with endotoxin-free water (Baxter) and filtered with Zetapor filters (Cuno Life Sciences Division). Cells were seeded at 3×10^5 cells per well in 6 well plates and allowed to adhere overnight (16 hours) before treatment.
(§5) To determine if incorporation of radiolabel into proteins was protein synthesis dependent MRC-5, SH-SY5Y and HUVEC cells were incubated with ^3H-BMAA (31.25 nM) with or without CHX 2 μg/ml for 16 hours. The amount of radiolabel present in cell proteins in the CHM-treated cultures was expressed relative to that of control cultures, which was set at 100%. […]

HUVEC = experiment: as above; type: cell-based, human; settings: 3H-BMAA 31.25 nM, CHX 2 μg/ml, 16 hours
Procedure: as §4, §5

MRC-5 cells [12] = experiment: Incorporation of 3H-BMAA radiolabel into cell proteins (TCA precipitation, liquid scintillation counting); type: cell-based, human; settings: 16 hours
Procedure: MRC-5 cells were incubated with ^3H-BMAA (31.25 nM) in HBSS containing 10% FCS. After 2, 4, and 16 hours, cells were washed three times in phosphate buffered saline and lysed by freeze-thawing in Triton X-100. The protein concentration in the lysate was determined using the bicinchoninic acid assay (BCA) (Smith, et al., Anal Biochem 150, 76-85 (1985)) (and radiolabel in the cell lysate quantified by liquid scintillation counting (LSC). Cell proteins were then isolated by trichloroacetic acid (TCA) (5%) precipitation washed three times in TCA (5%) and dissolved in formic acid.
To determine if incorporation of radiolabel into proteins was protein synthesis dependent MRC-5, SH-SY5Y and HUVEC cells were incubated with ^3H-BMAA (31.25 nM) with or without CHX 2 μg/ml for 16 hours. The amount of radiolabel present in cell proteins in the CHM-treated cultures was expressed relative to that of control cultures, which was set at 100%. Parallel cultures of MRC-5 cells were incubated with ^3H-leucine (41 nM) with or without CHX 2 μg/ml under identical culture conditions and processed as before.
To examine the ability of individual amino acids to reduce incorporation or radiolabel into proteins, MRC-5 cells were incubated with ^3H-BMAA (31.25 nM) for 16 hours in the presence of individual amino acids (250 μM) and the radiolabel present in the cell proteins assessed as before. All of the 20 protein amino acids (L-isomers) were examined individually in triplicate cell cultures. […] Incorporation of radiolabel was determined relative to cells incubated in medium containing no serine. MRC-5 cells were then incubated with ^3H-BMAA (31.25 nM) for 16 hours in HBSS alone, HBSS containing all 20 protein amino acids (400 μM) or 19 protein amino acids except L-serine and the amount of radiolabel in cell protein assessed as before.

[13] = mice, single injection (Karlsson et al. 2009); cited from earlier work

CNC[C@H](N)C(=O)O [BMAA, β-methylamino-L-alanine]
swimming performance, time to fail (zebrafish [1]): significant impairment; also recorded: impairs zebrafish swimming performance
necrosis, LDH release (MRC-5 cells [2]): no significant changes
necrosis, LDH release (SH-SY5Y cells [3]): no significant changes
crossing of the blood-brain barrier [4]: rapidly cross the blood-brain barrier
insertion into neuroproteins [4]: inserted into neuroproteins
formation of autofluorescent bodies (MRC-5 cells [5]): autofluorescent bodies were evident; also recorded: Autofluorescence was observed
morphological changes and pale cells indicative of apoptosis (MRC-5 cells [6]): increased number; also recorded: morphological changes
mortality (Drosophila fruit flies): 40%
zebrafish viability (survival) (zebrafish [7]): 74%
motor neuron development (zebrafish [8]): truncated neurons
Annexin V staining (apoptosis) (SH-SY5Y cells [9]; 500 μM BMAA alone): increased staining; also recorded: significant increase

C[C@@H]1C[C@@H]([C@H](O)CC2CC(=O)NC(=O)C2)C(=O)[C@@H](C)C1 [CHX, cycloheximide]
effect on incorporation of non-labeled BMAA into cell proteins (MRC-5 cells [10]): inhibited
effect on BMAA-induced Annexin V binding / apoptosis (SH-SY5Y cells [9]; 500 μM BMAA, co-incubation with CHX 2 μg/mL or L-serine 50 μM): abrogated; also recorded: significantly reduced
effect on protein association of 3H-BMAA (SH-SY5Y cells [11]): inhibited
effect on protein association of 3H-BMAA (HUVEC): inhibited
effect on amount of 3H-BMAA radiolabel in the protein fraction (MRC-5 cells [12]; 3H-BMAA 31.25 nM, CHX 2 μg/ml, relative to no CHX): significantly reduced; also recorded: inhibition of incorporation of radiolabel into cell protein
inhibition of incorporation of 3H-leucine into proteins, compared with 3H-BMAA (MRC-5 cells [12]; 3H-leucine 41 nM, CHX 2 μg/ml): to the same extent

N[C@H](CO)C(=O)O [D-Serine, D-serine]
effect on incorporation of 3H-BMAA into protein (MRC-5 cells [12]; 3H-BMAA 31.25 nM, 250 μM D-serine): did not prevent incorporation

CNC[C@H](N)C(=O)O [^3H-BMAA]
tissue distribution pattern [13]: a distribution pattern similar to that of a protein-forming amino acid
